Active and inactive are the calls of the source. No cut-off for these calls is given here.
Assays:
Estrogen receptor beta [1] = target: T1, Estrogen receptor beta (Homo sapiens, UniProt Q92731)
[2] = test system: Estrogen receptor beta (Homo sapiens), Q92731 [E305A]; assay: Antagonist activity at human ERbeta E305A mutant expressed in human HeLa cells co-expressing AP-1 assessed as inhibition of transactivation activity at up to 10 uM by luciferase reporter gene assay; type: functional, cell-based
Estrogen receptor beta (Homo sapiens), Q92731 [E305A], sequence (Q92731 whole entry E305A): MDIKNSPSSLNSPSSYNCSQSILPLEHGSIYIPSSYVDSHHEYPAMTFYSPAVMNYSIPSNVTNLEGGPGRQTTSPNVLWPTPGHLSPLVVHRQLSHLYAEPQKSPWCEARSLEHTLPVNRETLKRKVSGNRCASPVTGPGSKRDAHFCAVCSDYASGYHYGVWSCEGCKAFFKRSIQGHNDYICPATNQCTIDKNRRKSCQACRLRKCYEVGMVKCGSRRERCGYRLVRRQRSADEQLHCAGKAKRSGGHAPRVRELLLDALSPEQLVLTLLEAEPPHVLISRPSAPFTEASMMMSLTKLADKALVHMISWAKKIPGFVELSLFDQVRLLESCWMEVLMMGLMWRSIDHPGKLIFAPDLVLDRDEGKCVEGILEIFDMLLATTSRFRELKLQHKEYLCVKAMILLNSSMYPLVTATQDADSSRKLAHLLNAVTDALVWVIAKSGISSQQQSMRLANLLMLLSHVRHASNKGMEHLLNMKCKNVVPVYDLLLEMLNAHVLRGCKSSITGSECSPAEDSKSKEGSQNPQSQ

Estrogen receptor beta [3] = target: T1, Estrogen receptor beta; remark: listed apart in the source
Description: Antagonist activity at human wild type ERbeta expressed in human HeLa cells co-expressing AP-1 assessed as inhibition of transactivation activity by luciferase reporter gene assay

Estrogen receptor [4] = target: Estrogen receptor (Homo sapiens, UniProt P03372, E353A)
Estrogen receptor (Homo sapiens, UniProt P03372, E353A), sequence (P03372 whole entry E353A): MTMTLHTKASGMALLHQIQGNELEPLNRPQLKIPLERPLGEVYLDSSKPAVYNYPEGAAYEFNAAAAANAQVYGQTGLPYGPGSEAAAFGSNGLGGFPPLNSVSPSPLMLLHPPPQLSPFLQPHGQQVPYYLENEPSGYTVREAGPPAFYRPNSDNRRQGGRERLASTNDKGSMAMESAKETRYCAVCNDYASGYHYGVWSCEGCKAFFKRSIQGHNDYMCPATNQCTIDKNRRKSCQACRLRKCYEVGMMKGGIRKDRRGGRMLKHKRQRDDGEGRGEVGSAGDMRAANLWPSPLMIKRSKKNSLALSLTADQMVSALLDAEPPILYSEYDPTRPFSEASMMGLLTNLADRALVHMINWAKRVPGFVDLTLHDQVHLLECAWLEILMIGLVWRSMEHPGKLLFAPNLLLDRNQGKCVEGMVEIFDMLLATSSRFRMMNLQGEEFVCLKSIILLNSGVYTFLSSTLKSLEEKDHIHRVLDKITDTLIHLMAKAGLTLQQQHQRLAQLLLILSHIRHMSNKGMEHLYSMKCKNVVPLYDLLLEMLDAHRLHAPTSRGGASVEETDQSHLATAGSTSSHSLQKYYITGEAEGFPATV

Estrogen receptor [5] = target: T2, Estrogen receptor (Homo sapiens, UniProt P03372)
T2 sequence (P03372 whole entry): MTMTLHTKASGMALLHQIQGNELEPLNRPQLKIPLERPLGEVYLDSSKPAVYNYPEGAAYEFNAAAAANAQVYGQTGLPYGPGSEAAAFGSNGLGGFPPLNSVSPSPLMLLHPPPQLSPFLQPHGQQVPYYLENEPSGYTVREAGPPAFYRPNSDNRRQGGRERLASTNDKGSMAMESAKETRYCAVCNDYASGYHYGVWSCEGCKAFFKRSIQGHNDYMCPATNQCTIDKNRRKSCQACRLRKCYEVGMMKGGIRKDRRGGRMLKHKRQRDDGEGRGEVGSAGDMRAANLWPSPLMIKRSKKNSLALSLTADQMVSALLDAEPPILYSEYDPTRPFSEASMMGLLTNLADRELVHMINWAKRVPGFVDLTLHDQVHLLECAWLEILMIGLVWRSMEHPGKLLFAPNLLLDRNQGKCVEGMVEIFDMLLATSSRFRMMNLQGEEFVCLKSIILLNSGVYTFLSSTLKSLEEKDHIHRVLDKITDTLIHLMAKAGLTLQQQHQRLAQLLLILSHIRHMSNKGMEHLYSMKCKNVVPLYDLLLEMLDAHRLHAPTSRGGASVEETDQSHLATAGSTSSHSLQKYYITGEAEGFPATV

Estrogen receptor beta [6] = target: T1, Estrogen receptor beta; remark: listed apart in the source
Estrogen receptor beta [7] = target: Estrogen receptor beta (Homo sapiens, UniProt Q92731, E305A)
Estrogen receptor beta (Homo sapiens, UniProt Q92731, E305A), sequence (Q92731 whole entry E305A): as the sequence (Q92731 whole entry E305A) above

[8] = target: T3, Estrogen receptor (Homo sapiens) (UniProt P03372); assay: Agonist activity at human wild type ERalpha expressed in human HeLa cells co-expressing AP-1 assessed as transactivation activity by luciferase reporter gene assay; type: functional, cell-based
T3 sequence (whole entry): T2 sequence (P03372 whole entry)

T1 sequence (Q92731 whole entry): as the sequence (Q92731 whole entry E305A) above, with A305E counted along it

SMILES | IC50 (Estrogen receptor beta [1]) [nM] | Activity [2] | EC50 (Estrogen receptor beta [3]) [nM] | IC50 (Estrogen receptor [4]) [nM] | IC50 (Estrogen receptor [5]) [nM] | IC50 (Estrogen receptor beta [6]) [nM] | IC50 (Estrogen receptor beta [7]) [nM] | Activity [8]
O=C(O)/C=C/c1ccc2c(C(=O)c3ccc(OCCN4CCCCC4)cc3)c(-c3ccc(O)cc3)sc2c1 | > 10000 | inactive | 150 | 212 | 82 | 104 | > 10000 | 
CCCCN(C)C(=O)CCCCCCCCCC[C@@H]1Cc2cc(O)ccc2[C@H]2CC[C@]3(C)[C@@H](O)CC[C@H]3[C@H]12 |  |  |  |  |  |  |  | Active
